Measurements taken from PubChem BioAssay (NCI).
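48-hour exposure; five concentrations; linearly interpolated endpoints. GI50 is the concentration that inhibits growth by half. The concentration for full growth arrest is given as TGI.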

Tests used:
Assay in all cases: NCI tumour cell line growth inhibition, 48 h
MDA-MB-468 breast = test system: MDA-MB-468 breast
LOX IMVI melanoma = test system: LOX IMVI melanoma
HL-60(TB) leukemia = test system: HL-60(TB) leukemia
BT-549 breast = test system: BT-549 breast
OVCAR-8 ovarian = test system: OVCAR-8 ovarian
T-47D breast = test system: T-47D breast
SF-295 CNS = test system: SF-295 CNS
MALME-3M melanoma = test system: MALME-3M melanoma
SF-539 CNS = test system: SF-539 CNS
ACHN renal = test system: ACHN renal
SW-620 colon = test system: SW-620 colon
SK-MEL-28 melanoma = test system: SK-MEL-28 melanoma
786-0 renal = test system: 786-0 renal
KM12 colon = test system: KM12 colon
CCRF-CEM leukemia = test system: CCRF-CEM leukemia
RPMI-8226 leukemia = test system: RPMI-8226 leukemia
DU-145 prostate = test system: DU-145 prostate
SR leukemia = test system: SR leukemia
SK-MEL-5 melanoma = test system: SK-MEL-5 melanoma
SNB-75 CNS = test system: SNB-75 CNS
HCT-116 colon = test system: HCT-116 colon
OVCAR-3 ovarian = test system: OVCAR-3 ovarian
UACC-62 melanoma = test system: UACC-62 melanoma
TK-10 renal = test system: TK-10 renal
A498 renal = test system: A498 renal
MDA-MB-435 = test system: MDA-MB-435
SF-268 CNS = test system: SF-268 CNS
PC-3 prostate = test system: PC-3 prostate
U251 CNS = test system: U251 CNS
NCI-H460 lung = test system: NCI-H460 lung
EKVX NSCLC = test system: EKVX NSCLC
HOP-62 NSCLC = test system: HOP-62 NSCLC
MOLT-4 leukemia = test system: MOLT-4 leukemia
SK-MEL-2 melanoma = test system: SK-MEL-2 melanoma
HCC-2998 colon = test system: HCC-2998 colon
HCT-15 colon = test system: HCT-15 colon
HT29 colon = test system: HT29 colon
HOP-92 NSCLC = test system: HOP-92 NSCLC
MCF7 breast = test system: MCF7 breast
K-562 leukemia = test system: K-562 leukemia
OVCAR-4 ovarian = test system: OVCAR-4 ovarian
OVCAR-5 ovarian = test system: OVCAR-5 ovarian
A549 NSCLC = test system: A549 NSCLC
RXF 393 renal = test system: RXF 393 renal
IGROV1 ovarian = test system: IGROV1 ovarian
UACC-257 melanoma = test system: UACC-257 melanoma
SK-OV-3 ovarian = test system: SK-OV-3 ovarian
CAKI-1 renal = test system: CAKI-1 renal
UO-31 renal = test system: UO-31 renal
COLO 205 colon = test system: COLO 205 colon
SNB-19 CNS = test system: SNB-19 CNS
MDA-MB-231 breast = test system: MDA-MB-231 breast
NCI-H226 lung = test system: NCI-H226 lung
SN12C renal = test system: SN12C renal
NCI-H23 lung = test system: NCI-H23 lung
M14 melanoma = test system: M14 melanoma
NCI-H522 lung = test system: NCI-H522 lung

ClCCN(CCCl)c1ccc(-n2cnc3c(Cl)ncnc32)cc1
GI50 (MDA-MB-468 breast): 1.97 µM | TGI (MDA-MB-468 breast): 4.18 µM

COc1cc(/C=C/C(=O)c2ccc(S(=O)(=O)NCCNc3nc(N(C)C)nc(N4CCOCC4)n3)cc2)cc(OC)c1OC
GI50 (MDA-MB-468 breast): 1.69 µM | TGI (MDA-MB-468 breast): 3.36 µM | GI50 (LOX IMVI melanoma): 1.64 µM | TGI (LOX IMVI melanoma): 3.07 µM | GI50 (HL-60(TB) leukemia): 1.97 µM | TGI (HL-60(TB) leukemia): 7.34 µM | GI50 (BT-549 breast): 2.01 µM | TGI (BT-549 breast): 3.73 µM | GI50 (OVCAR-8 ovarian): 2.3 µM | TGI (OVCAR-8 ovarian): 6.07 µM | GI50 (T-47D breast): 5.74 µM | TGI (T-47D breast): 23.3 µM | GI50 (SF-295 CNS): 3.04 µM | TGI (SF-295 CNS): 11.9 µM | GI50 (MALME-3M melanoma): 1.97 µM | TGI (MALME-3M melanoma): 4.31 µM | GI50 (SF-539 CNS): 1.81 µM | TGI (SF-539 CNS): 3.37 µM | GI50 (ACHN renal): 1.78 µM | TGI (ACHN renal): 3.46 µM | GI50 (SW-620 colon): 1.9 µM | TGI (SW-620 colon): 3.75 µM | GI50 (SK-MEL-28 melanoma): 2.12 µM | TGI (SK-MEL-28 melanoma): 4.8 µM | GI50 (786-0 renal): 1.89 µM | TGI (786-0 renal): 3.68 µM | GI50 (KM12 colon): 1.7 µM | TGI (KM12 colon): 3.33 µM | GI50 (CCRF-CEM leukemia): 2.07 µM | TGI (CCRF-CEM leukemia): 7.25 µM | GI50 (RPMI-8226 leukemia): 1.39 µM | TGI (RPMI-8226 leukemia): 4.66 µM | GI50 (DU-145 prostate): 3.31 µM | TGI (DU-145 prostate): 11.6 µM | GI50 (SR leukemia): 1.88 µM | TGI (SR leukemia): 7.84 µM | GI50 (SK-MEL-5 melanoma): 7.9 µM | TGI (SK-MEL-5 melanoma): 20.7 µM | GI50 (SNB-75 CNS): 1.56 µM | TGI (SNB-75 CNS): 15.5 µM | GI50 (HCT-116 colon): 1.56 µM | TGI (HCT-116 colon): 3.04 µM | GI50 (OVCAR-3 ovarian): 2.02 µM | TGI (OVCAR-3 ovarian): 4.23 µM | GI50 (UACC-62 melanoma): 2.14 µM | TGI (UACC-62 melanoma): 5.54 µM | GI50 (TK-10 renal): 13.1 µM | TGI (TK-10 renal): 25.9 µM | GI50 (A498 renal): 14.2 µM | TGI (A498 renal): 27.4 µM | GI50 (MDA-MB-435): 1.9 µM | TGI (MDA-MB-435): 4.02 µM | GI50 (SF-268 CNS): 3.16 µM | TGI (SF-268 CNS): 12.5 µM | GI50 (PC-3 prostate): 3.76 µM | TGI (PC-3 prostate): 13.6 µM | GI50 (U251 CNS): 1.54 µM | TGI (U251 CNS): 2.92 µM | GI50 (NCI-H460 lung): 3.17 µM | TGI (NCI-H460 lung): 10.4 µM | GI50 (EKVX NSCLC): 3.74 µM | TGI (EKVX NSCLC): 19.8 µM | GI50 (HOP-62 NSCLC): 2.66 µM | TGI (HOP-62 NSCLC): 8.72 µM | GI50 (MOLT-4 leukemia): 2.23 µM | TGI (MOLT-4 leukemia): 9.28 µM | GI50 (SK-MEL-2 melanoma): 10.7 µM | TGI (SK-MEL-2 melanoma): 22.9 µM | GI50 (HCC-2998 colon): 1.8 µM | TGI (HCC-2998 colon): 3.26 µM | GI50 (HCT-15 colon): 1.82 µM | TGI (HCT-15 colon): 3.91 µM | GI50 (HT29 colon): 1.72 µM | TGI (HT29 colon): 3.19 µM | GI50 (HOP-92 NSCLC): 7.27 µM | TGI (HOP-92 NSCLC): 25.7 µM | GI50 (MCF7 breast): 1.64 µM | TGI (MCF7 breast): 3.98 µM | GI50 (K-562 leukemia): 1.46 µM | TGI (K-562 leukemia): > 100 µM | GI50 (OVCAR-4 ovarian): 2.21 µM | TGI (OVCAR-4 ovarian): 6.35 µM | GI50 (OVCAR-5 ovarian): 2.83 µM | TGI (OVCAR-5 ovarian): 7.57 µM | GI50 (A549 NSCLC): 3.55 µM | TGI (A549 NSCLC): 14 µM | GI50 (RXF 393 renal): 1.22 µM | TGI (RXF 393 renal): 3.24 µM | GI50 (IGROV1 ovarian): 2.6 µM | TGI (IGROV1 ovarian): 7.54 µM | GI50 (UACC-257 melanoma): 5.86 µM | TGI (UACC-257 melanoma): 18.5 µM | GI50 (SK-OV-3 ovarian): 14.3 µM | TGI (SK-OV-3 ovarian): 27.4 µM | GI50 (CAKI-1 renal): 10.6 µM | TGI (CAKI-1 renal): 23.3 µM | GI50 (UO-31 renal): 1.57 µM | TGI (UO-31 renal): 3.15 µM | GI50 (COLO 205 colon): 2.14 µM | TGI (COLO 205 colon): 5.03 µM | GI50 (SNB-19 CNS): 4.28 µM | TGI (SNB-19 CNS): 16.2 µM | GI50 (MDA-MB-231 breast): 2.9 µM | TGI (MDA-MB-231 breast): 7.55 µM | GI50 (NCI-H226 lung): 11.4 µM | TGI (NCI-H226 lung): 28.8 µM | GI50 (SN12C renal): 2.72 µM | TGI (SN12C renal): 8.71 µM | GI50 (NCI-H23 lung): 3.09 µM | TGI (NCI-H23 lung): 12.3 µM | GI50 (M14 melanoma): 2.18 µM | TGI (M14 melanoma): 6.34 µM | GI50 (NCI-H522 lung): 1.66 µM | TGI (NCI-H522 lung): 3.25 µM
